Measured values as given in patent US10385024B2, “Compounds and methods for inhibiting NHE-mediated antiport in the treatment of disorders associated with fluid retention or salt overload and gastrointestinal tract disorders” (Ardelyx, Inc., priority 2012, dated 2019).

What was measured:
[1] = human absorption data, from Ertl et al., J. Med. Chem., 2000; cited from earlier work
human NHE-3 = target: T1, human NHE-3 (Homo sapiens, UniProt P48764); assay: Cell-based assay of NHE-3 activity (human NHE3 inhibition assay); settings: OK cells with human NHE-3 gene, BCECF pH dye, 0-30 μM test compound; for IC50: read-out: Human NHE3 pIC50 (converted)
T1 construct: expressed in transfected cells; host or cells: Opossum kidney (OK) cells (ATCC), transfected by electroporation
T1 sequence (P48764 26-834): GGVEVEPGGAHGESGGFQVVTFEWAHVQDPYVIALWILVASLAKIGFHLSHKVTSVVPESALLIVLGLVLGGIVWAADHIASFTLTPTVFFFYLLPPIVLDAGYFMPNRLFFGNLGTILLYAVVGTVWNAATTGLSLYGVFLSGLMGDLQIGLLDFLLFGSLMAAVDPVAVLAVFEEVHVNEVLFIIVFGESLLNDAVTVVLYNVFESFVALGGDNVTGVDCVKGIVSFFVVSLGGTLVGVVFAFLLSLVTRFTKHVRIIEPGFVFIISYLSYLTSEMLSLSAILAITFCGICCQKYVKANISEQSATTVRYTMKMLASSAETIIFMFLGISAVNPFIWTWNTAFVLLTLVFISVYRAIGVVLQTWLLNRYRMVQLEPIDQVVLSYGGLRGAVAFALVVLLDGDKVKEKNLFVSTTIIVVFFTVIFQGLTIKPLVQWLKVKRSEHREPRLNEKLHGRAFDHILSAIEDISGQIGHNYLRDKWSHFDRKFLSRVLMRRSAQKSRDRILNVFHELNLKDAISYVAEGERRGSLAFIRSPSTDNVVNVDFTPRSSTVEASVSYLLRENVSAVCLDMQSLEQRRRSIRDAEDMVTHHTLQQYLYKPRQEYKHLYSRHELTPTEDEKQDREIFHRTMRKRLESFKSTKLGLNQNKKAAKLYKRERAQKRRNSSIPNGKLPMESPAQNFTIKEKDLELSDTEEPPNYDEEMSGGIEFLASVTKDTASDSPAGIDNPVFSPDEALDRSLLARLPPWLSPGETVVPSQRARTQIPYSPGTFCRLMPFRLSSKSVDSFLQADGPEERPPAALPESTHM
How it was run: (§1)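 Opossum kidney cells electroporated with rat or human NHE-3, loaded with 5 μM BCECF-AM in NH4Cl-HEPES pH 7.4 for 30 min at RT, then acidified 10 min in Na+-free choline HEPES. Na+-dependent pH recovery rates from BCECF fluorescence, averaged over ≥2 replicates, gave pIC50.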

Rat NHE-3 [2] = target: T2, Rat NHE-3 (Rattus norvegicus, UniProt P26433); assay: Cell-based assay of NHE-3 activity (rat NHE-3 prompt inhibition); settings: OK cells with rat NHE-3 gene, compound present during pH recovery; for IC50: read-out: Rat NHE3 pIC50 (prompt) (converted)
T2 construct: expressed in transfected cells; host or cells: Opossum kidney (OK) cells (ATCC), transfected by electroporation
T2 sequence (P26433 29-831): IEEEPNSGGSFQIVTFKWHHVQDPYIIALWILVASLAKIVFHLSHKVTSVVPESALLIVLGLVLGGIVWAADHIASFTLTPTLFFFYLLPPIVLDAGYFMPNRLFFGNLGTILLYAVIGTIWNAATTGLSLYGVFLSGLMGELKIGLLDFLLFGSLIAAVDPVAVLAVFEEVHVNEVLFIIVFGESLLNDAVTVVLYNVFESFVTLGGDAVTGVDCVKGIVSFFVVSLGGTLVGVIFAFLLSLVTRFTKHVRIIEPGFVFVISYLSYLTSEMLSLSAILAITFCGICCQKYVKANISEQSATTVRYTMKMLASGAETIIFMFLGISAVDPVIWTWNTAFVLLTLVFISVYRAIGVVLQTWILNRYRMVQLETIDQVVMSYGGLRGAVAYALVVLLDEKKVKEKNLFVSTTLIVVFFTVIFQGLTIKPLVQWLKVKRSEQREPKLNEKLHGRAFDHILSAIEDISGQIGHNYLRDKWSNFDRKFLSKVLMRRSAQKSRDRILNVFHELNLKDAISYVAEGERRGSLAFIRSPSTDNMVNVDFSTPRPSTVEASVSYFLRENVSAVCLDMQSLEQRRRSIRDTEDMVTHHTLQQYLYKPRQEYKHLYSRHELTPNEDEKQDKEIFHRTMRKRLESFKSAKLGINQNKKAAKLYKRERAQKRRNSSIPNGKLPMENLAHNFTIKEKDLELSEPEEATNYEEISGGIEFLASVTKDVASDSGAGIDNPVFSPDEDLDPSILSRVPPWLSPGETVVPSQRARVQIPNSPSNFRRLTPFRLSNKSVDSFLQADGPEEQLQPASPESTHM
How it was run: as §1

Rat NHE-3 [3] = target: T2, Rat NHE-3; assay: Cell-based assay of NHE-3 activity (persistent inhibition, after washout); settings: OK cells with rat NHE-3 gene, 60 min incubation, recovery initiated 40 min after compound washout; for IC50: read-out: Rat NHE3 pIC50 (persistent) (converted)
How it was run: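 OK cells transiently expressing rat NHE-3 were exposed to 0-30 μM compound in NaCl-HEPES pH 7.4 for 60 min, then washed free of drug before NH4Cl/BCECF-AM loading and acid-loading in Na+-free choline buffer. Na+-dependent pH recovery rates (mean of ≥2 replicates) gave pIC50.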

Fecal recovery = type: in vivo, Sprague Dawley rats; settings: male, Sprague-Dawley, faeces; rat, 1 mg/kg oral gavage, collection time 48 h
Experimental: Three male Sprague Dawley rats were administered 1 mg/kg test compound by oral gavage. Feces were collected from study animals from 0-48 or 0-72 hours after dosing, dried by lyophilization, and homogenized. Replicate aliquots of 40-60 mg each were subjected to extraction/protein precipitation with 7:1 acetonitrile:water and centrifuged. Supernatants were diluted 1:10 in 50:50 acetonitrile:water prior to analysis by LC-MS/MS. Compound concentrations, determined by interpolation from a standard calibration curve prepared in blank feces matrix, were converted to the percentage of dosed material recovered by taking into account the total collected fecal matter. The percent recovery for each rat was reported as the mean of the calculations from replicate samples. The overall percent recovery (Fecal Recovery [%]) was reported as the mean percent recovery from three rats. Accurate quality control sample recoveries were confirmed in each run, and extraction efficiency was periodically verified.

[4] = Pharmacokinetic evaluation in bile; type: in vivo, Sprague-Dawley rats; settings: bile duct cannulated rats, oral gavage, nominal dose 30 mg/kg, bile collected over 24 h, mean of n=3
Experimental: Bile duct cannulated (BDC) Sprague-Dawley rats were dosed with test compounds by oral gavage and a single aliquot of bile was collected via cannula over the 24 h following dosing. Bile samples were treated with acetonitrile and precipitated proteins were removed by centrifugation. Some compounds required liquid-liquid extraction using MTBE. After centrifugation, samples were diluted as appropriate in mobile phase and analyzed by LC-MS/MS. The concentrations of compounds in bile were determined by interpolation from a standard calibration curve prepared in rat bile from untreated BDC rats. Accurate recovery of quality control samples was confirmed to accept each analytical run. Concentration in bile is reported in nM and represents the mean result from n=3 rats.

Plasma PK = type: in vivo, Sprague-Dawley rats; settings: Sprague-Dawley; rat plasma, oral gavage, nominal dose 30 mg/kg, mean of n=3, sampling 0.5-4 h
Experimental: Sprague-Dawley rats (n=3) were dosed with test compounds by oral gavage. Blood was collected at 0.5, 1, 2 and 4 h via retro-orbital bleeds and processed to plasma using K2EDTA as an anticoagulant. Plasma samples were treated with acetonitrile containing an internal standard and precipitated proteins were removed by centrifugation. Supernatants were analyzed by LC-MS/MS and compound concentrations were determined by interpolation from a calibration curve prepared in plasma. Accurate recovery of quality control samples were confirmed to accept each analytical run.

[5] = test system: absorption of sodium from the intestinal lumen; assay: Inhibition of intestinal sodium absorption (urinary sodium and fecal form); type: in vivo, Sprague-Dawley rats; settings: rat
How it was run: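 Sprague-Dawley rats (8 weeks, n=6) dosed by oral gavage with compound or water vehicle (10 mL/kg) in late afternoon, then housed in metabolic cages. Over 16 h, urinary sodium measured by ion chromatography and expressed as % of vehicle mean; fecal form scored 1–5, averaged from two observations.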

OC[C@H]1O[C@@H](O[C@@H]2[C@@H](CO)OC(O)(CO)[C@H]2O)[C@H](O)[C@@H](O)[C@H]1O (mixture of isomers) [lactulose]
% FA [1]: 0.6%

CN1Cc2c(Cl)cc(Cl)cc2[C@H](c2cccc(S(=O)(=O)NCCOCCOCCNC(=O)NCCC(N)(CCNC(=O)NCCOCCOCCNS(=O)(=O)c3cccc([C@@H]4CN(C)Cc5c(Cl)cc(Cl)cc54)c3)CCNC(=O)NCCOCCOCCNS(=O)(=O)c3cccc([C@@H]4CN(C)Cc5c(Cl)cc(Cl)cc54)c3)c2)C1 [Example 46, (S)—N,N′-(14-amino-14-(13-(3-((S)-6,8-dichloro-2-methyl-1,2,3,4-tetrahydroisoquinolin-4-yl)phenylsulfonamido)-4-oxo-8,11-dioxa-3,5-diazatridecyl)-10,18-dioxo-3,6,22,25-tetraoxa-9,11,17,19-tetraazaheptacosane-1,27-diyl)bis(3-((S)-6,8-dichloro-2-methyl-1,2,3,4-tetrahydroisoquinolin-4-yl)benzenesulfonamide)]
IC50 (human NHE-3): < 100 nM
IC50 (Rat NHE-3 [2]): < 100 nM
IC50 (Rat NHE-3 [3]): < 100 nM
dose excreted (Fecal recovery): 75.8%
Concentration in Bile [4]: 3 nM

CN1Cc2c(Cl)cc(Cl)cc2[C@H](c2cccc(S(=O)(=O)NCCOCCOCCOCCNC(=O)NCCN(CCNC(=O)NCCOCCOCCOCCNS(=O)(=O)c3cccc([C@@H]4CN(C)Cc5c(Cl)cc(Cl)cc54)c3)CCNC(=O)NCCOCCOCCOCCNS(=O)(=O)c3cccc([C@@H]4CN(C)Cc5c(Cl)cc(Cl)cc54)c3)c2)C1 [Example 52]
Human NHE3 pIC50 (human NHE-3): C (C NHE3 pIC50 > 7)
Rat NHE3 pIC50 (prompt) (Rat NHE-3 [2]): B (B NHE3 pIC50 5-7)
Rat NHE3 pIC50 (persistent) (Rat NHE-3 [3]): C (C NHE3 pIC50 > 7)
AUC (Plasma PK): < 19 ng·h/mL
Cmax (Plasma PK): < 5 ng/mL

CC(O)C(CCC(=O)NCCOCCOCCNS(=O)(=O)c1cccc([C@@H]2CN(C)Cc3c(Cl)cc(Cl)cc32)c1)(CCC(=O)NCCOCCOCCNS(=O)(=O)c1cccc([C@@H]2CN(C)Cc3c(Cl)cc(Cl)cc32)c1)CCC(=O)NCCOCCOCCNS(=O)(=O)c1cccc([C@@H]2CN(C)Cc3c(Cl)cc(Cl)cc32)c1 (stereo partly drawn) [Example 73, N1,N7-bis(2-(2-(2-(3-((S)-6,8-dichloro-2-methyl-1,2,3,4-tetrahydroisoquinolin-4-yl)phenylsulfonamido)ethoxy)ethoxy)ethyl)-4-(3-(2-(2-(2-(3-((S)-6,8-dichloro-2-methyl-1,2,3,4-tetrahydroisoquinolin-4-yl)phenylsulfonamido)ethoxy)ethoxy)ethylamino)-3-oxopropyl)-4-(1-hydroxyethyl)heptanediamide]
IC50 (human NHE-3): < 100 nM
IC50 (Rat NHE-3 [2]): < 100 nM
IC50 (Rat NHE-3 [3]): < 100 nM
FFS ([5]; fecal form score, scale 1 (normal pellet) to 5 (liquid fecal streams), group average, 3 mg/kg oral, 16 h post-dose, vehicle = 1): 2
response vs control in vivo at 3 mg/kg ([5]; 3 mg/kg oral gavage, urine 16 h post-dose, asterisks = significance vs vehicle (*P<0.05, **P<0.01, ***P<0.001), read-out: uNa (% of vehicle)): 35 to 75%

C=CCc1ccccc1OCC(O)CNC(C)C (stereo not shown) [alprenolol]
% FA [1]: 96%

O=C(O)P(=O)(O)O [foscarnet]
% FA [1]: 17%

OC[C@@H](O)[C@@H](O)[C@H](O)[C@H](O)CO [mannitol]
% FA [1]: 26%

Cc1ccccc1N1C(=O)c2cc(S(N)(=O)=O)c(Cl)cc2NC1C (stereo not shown) [metolazone]
% FA [1]: 64%

O=C(O)c1cc(/N=N/c2ccc(O)c(C(=O)O)c2)ccc1O [olsalazine]
% FA [1]: 2.3%

C=CCOc1ccccc1OCC(O)CNC(C)C (stereo not shown) [oxprenolol]
% FA [1]: 97%

CC(C)NCC(O)COc1cccc2[nH]ccc12 (stereo not shown) [pindolol]
% FA [1]: 92%

CC(=O)Nc1ccc(OCC(O)CNC(C)C)cc1 (stereo not shown) [practolol]
% FA [1]: 95%

OC[C@H]1O[C@H](OC[C@H]2O[C@H](O[C@]3(CO)O[C@H](CO)[C@@H](O)[C@@H]3O)[C@H](O)[C@@H](O)[C@@H]2O)[C@H](O)[C@@H](O)[C@H]1O [raffinose]
% FA [1]: 0.3%

O=C(O)c1cc(/N=N/c2ccc(S(=O)(=O)Nc3ccccn3)cc2)ccc1O [sulfasalazine]
% FA [1]: 12%

CCN1CCCC1CNC(=O)c1cc(S(N)(=O)=O)ccc1OC (stereo not shown) [sulpiride]
% FA [1]: 36%

NC[C@H]1CC[C@H](C(=O)O)CC1 [tranexamic acid]
% FA [1]: 55%
